In publication PMC9414551 (Pharmaceuticals, 2022):
Counter-ions that a name gives are not always drawn.

What was measured:
NR1-2A NMDAR [1] = target: T1, NR1-2A NMDAR (Homo sapiens, UniProt Q05586+Q12879); assay: FLIPR Ca2+ assay, blocker concentration-response curve; type: cell-based; design: host or cells: CHO (CHO-hNR1-h2A), tetracycline-induced expression; conditions: for Slope: logistic fit of blocker CRC
Excerpt: (§1) CHO cell lines stably over-expressing heterodimeric NMDARs composed of human NR1 and 2 subunits were generated by Aptuit, an Evotec company (Verona, Italy). Cell line details are available at ExPASy Cellosaurus database. Research Resource Identifiers (RRIDs) are CVCL_B3TY, CVCL_B3TZ, CVCL_B3U0, and CVCL_B3U1 for CHO-hNR1-h2A, CHO-hNR1-h2B, CHO-hN1-h2C, and CHO-hN1-h2D, respectively. Protein accession numbers were NP_015566, NP_000824, NP_000825, NP_000826, and NP_000827 for NR1, 2A, 2B, 2C, and 2D, respectively. […] The four different heterodimeric NMDARs studied were NR1-2A, NR1-2B, NR1-2C, and NR1-2D. Cell lines were cultured for a maximum of 75 passages.
(§2) FLIPR assay allowed for indirect measurement of intracellular Ca^2+ concentration by means of a Ca^2+-sensitive fluorescent dye (Fluo-4) using the FLIPR instrument (Molecular Devices, San Jose, CA, USA). For these assays, 40 mM stock solutions of the test items were prepared in 100% dimethyl sulfoxide (DMSO), while glutamate and glycine 4 mM stock solutions were prepared in water. 384-well compound plates containing 400 × concentrated test item, glutamate, and glycine were prepared using Labcyte Echo acoustic dispensing system and stored at −20 °C until the day of the experiment.
(§3) Glycine 10 μM was always included in every test item addition.
(§4) Glycine was kept at a constant concentration of 10 μM during experiments.

NR1-2B NMDAR [2] = target: T2, NR1-2B NMDAR (Homo sapiens, UniProt Q05586+Q13224); assay: as above; type: cell-based; design: host or cells: CHO (CHO-hNR1-h2B), constitutive expression; conditions: for Min. (%), minimal % Ca2+ influx in the presence of 100 μM blocker: 10 µM L-glutamate, no Mg2+; for Slope: logistic fit of blocker CRC
T2 sequence (Q13224 27-1484, other chains not shown): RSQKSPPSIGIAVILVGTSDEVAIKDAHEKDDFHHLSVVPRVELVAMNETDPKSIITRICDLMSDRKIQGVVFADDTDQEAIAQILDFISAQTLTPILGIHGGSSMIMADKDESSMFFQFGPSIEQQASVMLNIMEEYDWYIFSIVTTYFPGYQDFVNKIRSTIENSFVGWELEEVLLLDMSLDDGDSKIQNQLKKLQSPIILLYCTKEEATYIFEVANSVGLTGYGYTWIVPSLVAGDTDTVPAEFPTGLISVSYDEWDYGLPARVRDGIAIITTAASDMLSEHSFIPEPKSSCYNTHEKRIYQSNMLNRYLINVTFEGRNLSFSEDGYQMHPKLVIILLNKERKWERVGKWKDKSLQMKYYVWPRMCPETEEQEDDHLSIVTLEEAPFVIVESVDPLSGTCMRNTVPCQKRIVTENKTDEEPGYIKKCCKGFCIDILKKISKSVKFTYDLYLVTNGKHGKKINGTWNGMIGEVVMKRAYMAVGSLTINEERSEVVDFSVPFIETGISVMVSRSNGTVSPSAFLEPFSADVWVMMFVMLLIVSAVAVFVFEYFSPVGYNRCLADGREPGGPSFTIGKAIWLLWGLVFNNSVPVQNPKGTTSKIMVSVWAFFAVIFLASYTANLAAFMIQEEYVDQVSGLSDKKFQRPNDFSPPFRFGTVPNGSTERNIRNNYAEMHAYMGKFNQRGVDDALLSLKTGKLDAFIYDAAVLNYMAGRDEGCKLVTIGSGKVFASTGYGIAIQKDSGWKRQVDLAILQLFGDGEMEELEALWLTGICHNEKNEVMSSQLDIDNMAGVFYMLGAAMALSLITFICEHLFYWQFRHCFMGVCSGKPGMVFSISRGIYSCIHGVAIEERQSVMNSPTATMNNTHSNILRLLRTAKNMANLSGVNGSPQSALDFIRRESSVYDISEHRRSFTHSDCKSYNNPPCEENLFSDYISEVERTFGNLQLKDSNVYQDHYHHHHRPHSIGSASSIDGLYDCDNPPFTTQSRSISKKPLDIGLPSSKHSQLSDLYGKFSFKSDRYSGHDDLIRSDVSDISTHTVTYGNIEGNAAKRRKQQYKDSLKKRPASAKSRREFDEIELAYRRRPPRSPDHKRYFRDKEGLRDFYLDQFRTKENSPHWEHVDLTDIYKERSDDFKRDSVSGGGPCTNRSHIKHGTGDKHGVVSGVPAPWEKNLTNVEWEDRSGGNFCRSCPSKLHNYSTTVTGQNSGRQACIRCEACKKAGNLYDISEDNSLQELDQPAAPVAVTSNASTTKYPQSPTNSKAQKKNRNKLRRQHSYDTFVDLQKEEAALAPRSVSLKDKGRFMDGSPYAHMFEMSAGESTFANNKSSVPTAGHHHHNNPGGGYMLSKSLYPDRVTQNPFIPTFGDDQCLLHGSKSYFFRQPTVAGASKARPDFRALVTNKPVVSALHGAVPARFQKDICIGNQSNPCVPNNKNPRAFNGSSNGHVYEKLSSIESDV
Excerpt: as §1, §2, §3, §4

NR1-2C NMDAR [3] = target: T3, NR1-2C NMDAR (Homo sapiens, UniProt Q05586+Q14957); assay: cell-based; type: cell-based; design: host or cells: CHO (CHO-hN1-h2C), tetracycline-induced expression; conditions: for remaining activity at 0.049 µM / remaining activity at 0.195 µM / remaining activity at 0.781 µM / remaining activity at 3.1 µM / remaining activity at 12.5 µM / remaining activity at 50 µM: read-out: L-glutamate Max. (maximal asymptote) in the presence of test item, GluN1/GluN2C; for remaining activity at 0.049 µM: test item 0.049 μM; for remaining activity at 0.195 µM: test item 0.195 μM; for remaining activity at 0.781 µM: test item 0.781 μM; for remaining activity at 3.1 µM: test item 3.1 μM; for remaining activity at 12.5 µM: test item 12.5 μM; for remaining activity at 50 µM: test item 50 μM
NR1-2B NMDAR [4] = target: T2, NR1-2B NMDAR; assay: cell-based; type: cell-based; design: host or cells: CHO (CHO-hNR1-h2B), constitutive expression; conditions: for remaining activity at 0.049 µM / remaining activity at 0.195 µM / remaining activity at 0.781 µM / remaining activity at 3.1 µM / remaining activity at 12.5 µM / remaining activity at 50 µM: read-out: L-glutamate Max. (maximal asymptote) in the presence of test item, GluN1/GluN2B; for remaining activity at 0.049 µM: test item 0.049 μM; for remaining activity at 0.195 µM: test item 0.195 μM; for remaining activity at 0.781 µM: test item 0.781 μM; for remaining activity at 3.1 µM: test item 3.1 μM; for remaining activity at 12.5 µM: test item 12.5 μM; for remaining activity at 50 µM: test item 50 μM
NR1-2C NMDAR [5] = target: T3, NR1-2C NMDAR; assay: FLIPR Ca2+ assay, blocker concentration-response curve; type: cell-based; design: host or cells: CHO (CHO-hN1-h2C), tetracycline-induced expression; conditions: for Min. (%), minimal % Ca2+ influx in the presence of 100 μM blocker: 10 µM L-glutamate, no Mg2+; for Slope: logistic fit of blocker CRC
Excerpt: as §1, §2, §3, §4

NR1-2A NMDAR [6] = target: T1, NR1-2A NMDAR; assay: cell-based; type: cell-based; design: host or cells: CHO (CHO-hNR1-h2A), tetracycline-induced expression; conditions: for remaining activity at 0.049 µM / remaining activity at 0.195 µM / remaining activity at 0.781 µM / remaining activity at 3.1 µM / remaining activity at 12.5 µM / remaining activity at 50 µM: read-out: L-glutamate Max. (maximal asymptote) in the presence of test item, GluN1/GluN2A; for remaining activity at 0.049 µM: test item 0.049 μM; for remaining activity at 0.195 µM: test item 0.195 μM; for remaining activity at 0.781 µM: test item 0.781 μM; for remaining activity at 3.1 µM: test item 3.1 μM; for remaining activity at 12.5 µM: test item 12.5 μM; for remaining activity at 50 µM: test item 50 μM
NR1-2D NMDAR [7] = target: T4, NR1-2D NMDAR (Homo sapiens, UniProt O15399+Q05586); assay: FLIPR Ca2+ assay, blocker concentration-response curve; type: cell-based; design: host or cells: CHO (CHO-hN1-h2D), tetracycline-induced expression; conditions: for Min. (%), minimal % Ca2+ influx in the presence of 100 μM blocker: 10 µM L-glutamate, no Mg2+; for Slope: logistic fit of blocker CRC
T4 sequence (O15399 28-1336, other chains not shown): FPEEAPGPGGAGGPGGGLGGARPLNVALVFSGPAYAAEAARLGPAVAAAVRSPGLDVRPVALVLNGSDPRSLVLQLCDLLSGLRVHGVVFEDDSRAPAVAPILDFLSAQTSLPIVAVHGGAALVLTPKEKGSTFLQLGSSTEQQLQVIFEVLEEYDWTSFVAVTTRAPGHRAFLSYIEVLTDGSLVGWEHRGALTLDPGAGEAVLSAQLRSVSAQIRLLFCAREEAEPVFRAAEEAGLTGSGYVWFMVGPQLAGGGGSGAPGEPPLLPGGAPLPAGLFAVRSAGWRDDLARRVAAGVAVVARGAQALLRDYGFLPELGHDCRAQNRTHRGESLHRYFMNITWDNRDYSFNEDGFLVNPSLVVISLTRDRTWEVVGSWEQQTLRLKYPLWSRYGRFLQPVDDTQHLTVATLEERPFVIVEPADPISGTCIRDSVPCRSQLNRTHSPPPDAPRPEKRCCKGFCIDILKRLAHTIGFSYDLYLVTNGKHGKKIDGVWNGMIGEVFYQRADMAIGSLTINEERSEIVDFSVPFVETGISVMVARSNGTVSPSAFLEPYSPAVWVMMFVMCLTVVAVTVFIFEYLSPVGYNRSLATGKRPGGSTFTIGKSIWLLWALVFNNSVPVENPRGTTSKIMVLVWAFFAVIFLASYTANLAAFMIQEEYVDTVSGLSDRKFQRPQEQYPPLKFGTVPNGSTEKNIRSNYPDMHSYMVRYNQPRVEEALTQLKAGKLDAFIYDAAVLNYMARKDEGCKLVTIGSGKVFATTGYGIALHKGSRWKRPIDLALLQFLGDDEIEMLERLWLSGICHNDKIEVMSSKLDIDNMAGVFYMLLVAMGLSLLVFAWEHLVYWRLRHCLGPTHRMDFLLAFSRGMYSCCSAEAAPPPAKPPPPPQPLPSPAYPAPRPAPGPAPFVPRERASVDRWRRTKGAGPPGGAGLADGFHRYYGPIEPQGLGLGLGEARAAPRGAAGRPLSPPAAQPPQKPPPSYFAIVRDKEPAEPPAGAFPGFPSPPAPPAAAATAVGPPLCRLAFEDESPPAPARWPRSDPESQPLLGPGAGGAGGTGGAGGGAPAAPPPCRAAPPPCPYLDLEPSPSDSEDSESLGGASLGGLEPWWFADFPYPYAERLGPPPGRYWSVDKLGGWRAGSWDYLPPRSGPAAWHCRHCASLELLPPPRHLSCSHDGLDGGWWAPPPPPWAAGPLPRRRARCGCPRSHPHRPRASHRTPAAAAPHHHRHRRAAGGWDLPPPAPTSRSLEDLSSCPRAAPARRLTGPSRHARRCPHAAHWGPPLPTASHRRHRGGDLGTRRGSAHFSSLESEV
Excerpt: as §1, §2, §3, §4

NMDAR = conditions: rat cortical membranes
NR1-2D NMDAR [8] = target: T4, NR1-2D NMDAR; assay: cell-based; type: cell-based; design: host or cells: CHO (CHO-hN1-h2D), tetracycline-induced expression; conditions: for remaining activity at 0.049 µM / remaining activity at 0.195 µM / remaining activity at 0.781 µM / remaining activity at 3.1 µM / remaining activity at 12.5 µM / remaining activity at 50 µM: read-out: L-glutamate Max. (maximal asymptote) in the presence of test item, GluN1/GluN2D; for remaining activity at 0.049 µM: test item 0.049 μM; for remaining activity at 0.195 µM: test item 0.195 μM; for remaining activity at 0.781 µM: test item 0.781 μM; for remaining activity at 3.1 µM: test item 3.1 μM; for remaining activity at 12.5 µM: test item 12.5 μM; for remaining activity at 50 µM: test item 50 μM
NR1-2D NMDAR [9] = target: T4, NR1-2D NMDAR; assay: Whole-cell manual patch-clamp REL-1017 CRC in 1 mM MgCl2; conditions: 1 mM MgCl2, 1 μM L-glutamate, −60 mV
NR1-2C NMDAR [10] = target: T3, NR1-2C NMDAR; assay: as above; conditions: 1 mM MgCl2, 1 μM L-glutamate, −60 mV

T1 sequence (Q12879 23-1464, other chains not shown): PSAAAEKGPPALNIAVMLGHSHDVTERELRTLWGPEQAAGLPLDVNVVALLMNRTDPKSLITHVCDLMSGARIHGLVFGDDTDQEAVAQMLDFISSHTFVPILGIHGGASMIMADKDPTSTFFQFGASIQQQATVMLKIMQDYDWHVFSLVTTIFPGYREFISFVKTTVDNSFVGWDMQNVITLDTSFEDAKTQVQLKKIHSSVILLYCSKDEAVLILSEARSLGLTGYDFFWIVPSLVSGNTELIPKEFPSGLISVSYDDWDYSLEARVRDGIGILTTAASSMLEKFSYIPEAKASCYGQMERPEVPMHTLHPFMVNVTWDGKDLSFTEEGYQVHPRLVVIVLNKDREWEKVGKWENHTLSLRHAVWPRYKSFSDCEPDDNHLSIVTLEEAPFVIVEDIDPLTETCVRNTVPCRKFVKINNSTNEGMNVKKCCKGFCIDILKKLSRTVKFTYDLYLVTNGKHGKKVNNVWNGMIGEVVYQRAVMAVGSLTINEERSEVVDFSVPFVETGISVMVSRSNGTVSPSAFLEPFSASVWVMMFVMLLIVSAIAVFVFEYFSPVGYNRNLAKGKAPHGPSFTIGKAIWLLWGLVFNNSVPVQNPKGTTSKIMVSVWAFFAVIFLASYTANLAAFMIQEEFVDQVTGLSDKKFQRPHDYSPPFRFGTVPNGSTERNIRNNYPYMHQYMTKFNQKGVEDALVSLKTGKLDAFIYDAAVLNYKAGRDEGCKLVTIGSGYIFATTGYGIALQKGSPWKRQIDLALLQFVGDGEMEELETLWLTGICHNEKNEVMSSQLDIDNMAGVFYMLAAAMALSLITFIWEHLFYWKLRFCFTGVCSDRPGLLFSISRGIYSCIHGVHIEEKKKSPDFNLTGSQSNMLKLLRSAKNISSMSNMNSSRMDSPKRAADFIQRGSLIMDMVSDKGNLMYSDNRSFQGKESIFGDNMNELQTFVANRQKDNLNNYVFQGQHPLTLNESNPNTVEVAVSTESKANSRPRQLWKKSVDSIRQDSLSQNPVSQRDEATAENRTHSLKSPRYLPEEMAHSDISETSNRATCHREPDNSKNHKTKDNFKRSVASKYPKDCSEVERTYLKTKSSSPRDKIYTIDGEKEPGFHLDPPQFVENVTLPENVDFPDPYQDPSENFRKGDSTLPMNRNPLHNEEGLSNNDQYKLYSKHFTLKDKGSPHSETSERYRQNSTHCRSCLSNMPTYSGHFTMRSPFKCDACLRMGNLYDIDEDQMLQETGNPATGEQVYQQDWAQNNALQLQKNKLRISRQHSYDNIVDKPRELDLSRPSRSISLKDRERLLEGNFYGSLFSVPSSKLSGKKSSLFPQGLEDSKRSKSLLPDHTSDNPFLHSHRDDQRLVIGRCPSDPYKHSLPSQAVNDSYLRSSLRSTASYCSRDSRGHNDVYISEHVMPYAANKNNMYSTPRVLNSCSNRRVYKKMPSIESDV

With COc1ccc2c(c1)[C@]13CCCC[C@@H]1[C@H](C2)N(C)CC3 [Dextromethorphan, dextromethorphan] the “Min. (%), minimal % Ca2+ influx in the presence of 100 μM blocker” value (shortened to “Min. (%), minimal % Ca2+ influx”) (NR1-2A NMDAR [1]; 100 μM blocker, 10 µM L-glutamate, no Mg2+) was 35%, the Slope (NR1-2A NMDAR [1]) was −0.80 and the “Min. (%), minimal % Ca2+ influx” value (NR1-2B NMDAR [2]) was 14%. The Slope (NR1-2B NMDAR [2]) was −0.89, the Kb (NR1-2C NMDAR [3]; NR1-2C, operational equation for allosteric modulators, no Mg2+) was 1.2 µM and the “Affinity Ratio (%)” value (NR1-2C NMDAR [3]; NR1-2C, reciprocal of KB, highest affinity subtype = 100%) was 100%. For the same molecule, the remaining activity at 0.049 µM (NR1-2C NMDAR [3]) was 95%, the remaining activity at 0.195 µM (NR1-2C NMDAR [3]) was 97% and the remaining activity at 0.781 µM (NR1-2C NMDAR [3]) was 86%. For the same molecule, the remaining activity at 3.1 µM (NR1-2C NMDAR [3]) was 67%, the remaining activity at 12.5 µM (NR1-2C NMDAR [3]) was 26% and the remaining activity at 50 µM (NR1-2C NMDAR [3]) was 13%. The Kb (NR1-2B NMDAR [4]; NR1-2B, operational equation for allosteric modulators, no Mg2+) was 1.9 µM, the “Affinity Ratio (%)” value (NR1-2B NMDAR [4]; NR1-2B, reciprocal of KB, highest affinity subtype = 100%) was 63% and the remaining activity at 0.049 µM (NR1-2B NMDAR [4]) was 95%. It also gave a remaining activity at 0.195 µM (NR1-2B NMDAR [4]) of 92%, a remaining activity at 0.781 µM (NR1-2B NMDAR [4]) of 88% and a remaining activity at 3.1 µM (NR1-2B NMDAR [4]) of 74%. The remaining activity at 12.5 µM (NR1-2B NMDAR [4]) was 57%, the remaining activity at 50 µM (NR1-2B NMDAR [4]) was 32% and the “Min. (%), minimal % Ca2+ influx” value (NR1-2C NMDAR [5]) was 14%. For the same molecule, the Slope (NR1-2C NMDAR [5]) was −1.0, the Kb (NR1-2A NMDAR [6]; NR1-2A, operational equation for allosteric modulators, no Mg2+) was 9.6 µM and the “Affinity Ratio (%)” value (NR1-2A NMDAR [6]; NR1-2A, reciprocal of KB, highest affinity subtype = 100%) was 13%. For the same molecule, the remaining activity at 0.049 µM (NR1-2A NMDAR [6]) was 98%, the remaining activity at 0.195 µM (NR1-2A NMDAR [6]) was 92% and the remaining activity at 0.781 µM (NR1-2A NMDAR [6]) was 99%. For the same molecule, the remaining activity at 3.1 µM (NR1-2A NMDAR [6]) was 88%, the remaining activity at 12.5 µM (NR1-2A NMDAR [6]) was 79% and the remaining activity at 50 µM (NR1-2A NMDAR [6]) was 44%. The “Min. (%), minimal % Ca2+ influx” value (NR1-2D NMDAR [7]) was 43%, the Slope (NR1-2D NMDAR [7]) was −1.2 and the IC50 (NMDAR; [3H]TCP 4 nM) was 2.06 µM. For the same molecule, the Ki (NMDAR; [3H]TCP, Cheng and Prusoff) was 1.4 µM, the Kb (NR1-2D NMDAR [8]; NR1-2D, operational equation for allosteric modulators, no Mg2+) was 6.7 µM and the “Affinity Ratio (%)” value (NR1-2D NMDAR [8]; NR1-2D, reciprocal of KB, highest affinity subtype = 100%) was 18%. For the same molecule, the remaining activity at 0.049 µM (NR1-2D NMDAR [8]) was 93%, the remaining activity at 0.195 µM (NR1-2D NMDAR [8]) was 91% and the remaining activity at 0.781 µM (NR1-2D NMDAR [8]) was 99%. The remaining activity at 3.1 µM (NR1-2D NMDAR [8]) was 87%, the remaining activity at 12.5 µM (NR1-2D NMDAR [8]) was 59% and the remaining activity at 50 µM (NR1-2D NMDAR [8]) was 31%.
In the case of CCC(=O)C(C[C@H](C)N(C)C)(c1ccccc1)c1ccccc1 [REL-1017, dextromethadone HCl], the Slope (NR1-2A NMDAR [1]) is reported as −1.0, the “Min. (%), minimal % Ca2+ influx” value (NR1-2B NMDAR [2]) is reported as 14% and the Slope (NR1-2B NMDAR [2]) is reported as −1.1. The remaining activity at 0.049 µM (NR1-2C NMDAR [3]) was 99%, the remaining activity at 0.195 µM (NR1-2C NMDAR [3]) was 100% and the remaining activity at 0.781 µM (NR1-2C NMDAR [3]) was 95%. For the same molecule, the remaining activity at 3.1 µM (NR1-2C NMDAR [3]) was 94%, the remaining activity at 12.5 µM (NR1-2C NMDAR [3]) was 75% and the remaining activity at 50 µM (NR1-2C NMDAR [3]) was 30%. It also gave a remaining activity at 0.049 µM (NR1-2B NMDAR [4]) of 96%, a remaining activity at 0.195 µM (NR1-2B NMDAR [4]) of 96% and a remaining activity at 0.781 µM (NR1-2B NMDAR [4]) of 93%. It also gave a remaining activity at 3.1 µM (NR1-2B NMDAR [4]) of 89%, a remaining activity at 12.5 µM (NR1-2B NMDAR [4]) of 72% and a remaining activity at 50 µM (NR1-2B NMDAR [4]) of 35%. For the same molecule, the “Min. (%), minimal % Ca2+ influx” value (NR1-2C NMDAR [5]) was 15%, the Slope (NR1-2C NMDAR [5]) was −0.84 and the remaining activity at 0.049 µM (NR1-2A NMDAR [6]) was 103%. The remaining activity at 0.195 µM (NR1-2A NMDAR [6]) was 98%, the remaining activity at 0.781 µM (NR1-2A NMDAR [6]) was 103% and the remaining activity at 3.1 µM (NR1-2A NMDAR [6]) was 98%. For the same molecule, the remaining activity at 12.5 µM (NR1-2A NMDAR [6]) was 84%, the remaining activity at 50 µM (NR1-2A NMDAR [6]) was 35% and the “Hill Slope” value (NR1-2D NMDAR [9]) was 1.42. The “Min. (%), minimal % Ca2+ influx” value (NR1-2D NMDAR [7]) was 47%, the Slope (NR1-2D NMDAR [7]) was −0.68 and the “Hill Slope” value (NR1-2C NMDAR [10]) was 1.49. For the same molecule, the remaining activity at 0.049 µM (NR1-2D NMDAR [8]) was 101%, the remaining activity at 0.195 µM (NR1-2D NMDAR [8]) was 97% and the remaining activity at 0.781 µM (NR1-2D NMDAR [8]) was 101%. For the same molecule, the remaining activity at 3.1 µM (NR1-2D NMDAR [8]) was 97%, the remaining activity at 12.5 µM (NR1-2D NMDAR [8]) was 82% and the remaining activity at 50 µM (NR1-2D NMDAR [8]) was 41%.
